Results published in patent publication US20130012466A1 (priority 2006, published 2013).
Where two headings read alike, the source gives them in different places.

Experiments:
A549 cells [1] = assay: Drug combination study with paclitaxel (Chou-Talalay combination index); conditions: for synergy (paclitaxel): combination index class, combination with paclitaxel, Chou-Talalay method; for plus paclitaxel, mean CI / plus paclitaxel, median CI: combination index, paclitaxel held at IC10, A549 cells;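 as to all read-outs here: combination indexes averaged only over points where fraction affected exceeded 0.2, with each synergy experiment repeated at least three times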
A549 cells [2] = assay: Drug combination study with colchicine (Chou-Talalay combination index); conditions: for plus colchicine, mean CI / plus colchicine, median CI: combination index, colchicine held at IC10, A549 cells
NCI-H460 = assay: Cytotoxicity assay (cell titer-glo and calcein AM), NCI-H460
SF-268 = assay: Cytotoxicity assay (cell titer-glo and calcein AM), SF-268
Du145 = assay: Cytotoxicity assay (cell titer-glo and calcein AM), Du145
SK-OV-3 = assay: Cytotoxicity assay (cell titer-glo and calcein AM), SK-OV-3
Hep3B = assay: Cytotoxicity assay (cell titer-glo and calcein AM), Hep3B
MCF7 = assay: Cytotoxicity assay (cell titer-glo and calcein AM), MCF7
ADR-RES = assay: Cytotoxicity assay (cell titer-glo and calcein AM), ADR-RES; conditions: NCI/ADR RES, % error in parentheses
[3] = test system: mouse mammary normal epithelial control cell line; assay: Cytotoxicity assay, normal control cell line
A549 = assay: Cytotoxicity assay (cell titer-glo and calcein AM), A549
tubulin = assay: In vitro tubulin polymerization assay (fluorescence-based); format: biochemical
Procedure: In vitro tubulin polymerization assays were performed using a fluorescence-based assay (Cytoskeleton, Inc., Denver, Colo.). […] Aliquots (5 μL) of each compound or control were added to a 96-well black half area plate (Corning Costar, Inc.) pre-warmed to 37° C. Cold tubulin reaction mix (50 μL 1× Buffer—80 mM piperazine-N,N′-bis[2-ethanesulfonic acid]sequisodium salt; 2.0 mM magnesium chloride; 0.5 mM ethylene glycol-bis[β-amino-ethyl ether) N,N,N′,N′-tetra-acetic acid, pH 6.9, 10 μM fluorescent reporter; 20% tubulin glycerol buffer—80 mM piperazine-N,N′-bis[2-ethanesulfonic acid] sequisodium salt; 2.0 mM magnesium chloride; 0.5 mM ethylene glycol-bis(β-amino-ethyl ether) N,N,N′,N′-tetra-acetic acid, 60% v/v glycerol, pH 6.9, 1 mM GTP; and 2 mg mL^−1 tubulin stock) was added to each of the compounds. […] Polymerization curves were generated in Excel after background correction and the effects of test compounds were compared to controls.
Library members that accelerated the rate of tubulin polymerization were deemed microtubule stabilizers, whereas compounds that decelerated the rate of tubulin polymerization were deemed microtubule de-stabilizers.

[4] = drug combination, A549 cells, Chou-Talalay
[5] = read-out: Cytotoxicity IC50, NCI-H460, CTG, NCI-H460, CTG (cell titer-glo) readout, % error in parentheses
[6] = read-out: Cytotoxicity IC50, NCI-H460, calcein, NCI-H460, calcein AM readout, % error in parentheses
[7] = read-out: Cytotoxicity IC50, SF-268, CTG, SF-268, CTG (cell titer-glo) readout, % error in parentheses
[8] = read-out: Cytotoxicity IC50, SF-268, calcein, SF-268, calcein AM readout, % error in parentheses
[9] = read-out: Cytotoxicity IC50, Du145, CTG, Du145, CTG (cell titer-glo) readout, % error in parentheses
[10] = read-out: Cytotoxicity IC50, Du145, calcein, Du145, calcein AM readout, % error in parentheses
[11] = read-out: Cytotoxicity IC50, SK-OV-3, CTG, SK-OV-3, CTG (cell titer-glo) readout, % error in parentheses
[12] = read-out: Cytotoxicity IC50, SK-OV-3, calcein, SK-OV-3, calcein AM readout, % error in parentheses
[13] = read-out: Cytotoxicity IC50, Hep 3B, CTG, Hep 3B, CTG (cell titer-glo) readout, % error in parentheses
[14] = read-out: Cytotoxicity IC50, Hep 3B, calcein, Hep 3B, calcein AM readout, % error in parentheses
[15] = read-out: Cytotoxicity IC50, MCF7, CTG, CTG (cell titer-glo) readout, % error in parentheses
[16] = read-out: Cytotoxicity IC50, MCF7, calcein, calcein AM readout, % error in parentheses
[17] = read-out: Cytotoxicity IC50, NCI/ADR RES, CTG, CTG (cell titer-glo) readout
[18] = read-out: Cytotoxicity IC50, NCI/ADR RES, calcein, calcein AM readout
[19] = read-out: Cytotoxicity IC50, NmuMG, CTG, CTG (cell titer-glo) readout, % error in parentheses
[20] = read-out: Cytotoxicity IC50, NmuMG, calcein, calcein AM readout, % error in parentheses
[21] = read-out: Cytotoxicity IC50, A549, CTG, A549, CTG (cell titer-glo) readout, % error in parentheses
[22] = read-out: Cytotoxicity IC50, A549, calcein, A549, calcein AM readout, % error in parentheses

Row | Compound | IC50 (NCI-H460; [5]) | IC50 (NCI-H460; [6]) | IC50 (SF-268; [7]) | IC50 (SF-268; [8]) | IC50 (Du145; [9]) | IC50 (Du145; [10]) | IC50 (SK-OV-3; [11]) | IC50 (SK-OV-3; [12]) | IC50 (Hep3B; [13]) | IC50 (Hep3B; [14]) | IC50 (MCF7; [15]) | IC50 (MCF7; [16]) | IC50 (ADR-RES; [17]) | IC50 (ADR-RES; [18]) | IC50 [3, 19] | IC50 [3, 20] | IC50 (A549; [21]) | IC50 (A549; [22]) | also measured
1 | COc1cc2c(c(OC)c1OC)-c1ccc(OC)c(=O)cc1[C@@H](NC(C)=O)CC2 [colchicine, reference compound] | – | – | – | – | – | – | – | – | – | – | – | – | – | – | – | – | – | – | synergy (paclitaxel) (A549 cells [1]): ++ (moderate synergism, Cl 0.7-0.85); plus paclitaxel, mean CI (A549 cells [1]): 0.77; plus paclitaxel, median CI (A549 cells [1]): 0.18
2 | 19-(N-METHOXYAMINO-N-22-DEOXY-D-RIBOSYL)COLCHICINE [Col21] | – | – | – | – | – | – | – | – | – | – | – | – | – | – | – | – | – | – | synergy (paclitaxel) (A549 cells [1]): — (moderate antagonism, Cl 1.2-1.45); plus paclitaxel, mean CI (A549 cells [1]): 4.96; plus paclitaxel, median CI (A549 cells [1]): 2.50; plus colchicine, mean CI (A549 cells [2]): 1.01; plus colchicine, median CI (A549 cells [2]): 0.64
3 | COc1cc2c(c(OC)c1OC)-c1ccc(OC)c(=O)cc1[C@@H](N)CC2 [Col 6, deacetyl colchicine] | – | – | – | – | – | – | – | – | – | – | – | – | – | – | – | – | – | – | plus paclitaxel, mean CI (A549 cells [1]): 0.57; plus paclitaxel, median CI (A549 cells [1]): 0.20; interaction with paclitaxel/taxol (A549 cells [1]; [4]): synergy; plus colchicine, mean CI (A549 cells [2]): 2.32; plus colchicine, median CI (A549 cells [2]): 1.96; interaction with colchicine (A549 cells [2]; [4]): antagonism
4 | COc1cc2c(c(OC)c1OC)-c1ccc(OC)c(=O)cc1C(NC(=O)CN(OC)C1OC(C)C(O)C(O)C1O)CC2 [Col14, L-fucoside] | 9.03 µM | > 10 µM | 5.28 µM | 9.89 µM | > 10 µM | > 10 µM | > 10 µM | > 10 µM | > 10 µM | > 10 µM | 4.95 µM | > 10 µM | > 10 µM | > 10 µM | > 10 µM | > 10 µM | > 10 µM | > 10 µM | –
5 | COc1cc2c(c(OC)c1OC)-c1ccc(OC)c(=O)cc1[C@@H](NC(=O)CN(OC)[C@@H]1O[C@H](CSC(C)=O)[C@H](O)[C@H](O)[C@H]1O)CC2 [Col68, 6-deoxy-6-thio-acyl-D-galactoside] | 4.41 µM | 3.12 µM | 3.85 µM | 3.27 µM | 4.19 µM | 1.73 µM | 4.5 µM | 2.43 µM | 5.22 µM | 7.92 µM | 2.42 µM | 2.54 µM | 4.88 µM | 2.04 µM | 9.83 µM | 9.44 µM | 4.77 µM | 7.67 µM | –
6 | COc1cccc2c1C(=O)c1c(O)c3c(c(O)c1C2=O)C[C@@](O)(C(=O)CO)C[C@@H]3O[C@H]1C[C@H](N)[C@H](O)[C@H](C)O1 [doxorubicin, reference compound] | – | – | – | – | – | – | – | – | – | – | – | – | – | – | – | – | – | – | IC50 (NCI-H460; Homo sapiens, NCI-H460, read-out: IC50 (NCI-H460)): 1 µM; IC50 (SF-268; Homo sapiens, SF-268, read-out: IC50 (SF-268)): 0.385 µM; tubulin polymeriz. (tubulin): no effect; effect on tubulin polymerization / microtubules (tubulin; tested in duplicate on at least two days): no apparent effect; IC50 (Du145; Homo sapiens, DU-145, read-out: IC50 (Du145)): 0.339 µM; IC50 (SK-OV-3; Homo sapiens, SK-OV-3, read-out: IC50 (SK-OV-3)): 0.621 µM; IC50 (Hep3B; Homo sapiens, Hep3B, read-out: IC50 (Hep3B)): 0.268 µM; IC50 (A549; Homo sapiens, A549, read-out: IC50 (A549)): 0.77 µM
7 | COc1cc2c(c(OC)c1OC)-c1ccc(OC)c(=O)cc1C(NC(=O)CN(OC)C1OCC(O)C(O)C1O)CC2 [Col25, L-arabinoside] | 4.41 µM | 5.78 µM | 6.8 µM | 4.46 µM | 7.4 µM | > 10 µM | 8.51 µM | 2.51 µM | > 10 µM | > 10 µM | 3.02 µM | 3.43 µM | 5.14 µM | 5.53 µM | 5.7 µM | > 10 µM | 5.02 µM | 5.26 µM | –
8 | COc1cc2c(c(OC)c1OC)-c1ccc(OC)c(=O)cc1C(NC(=O)CN(OC)C1OCC(O)C(O)C1O)CC2 [Col17, L-xyloside] | 5.17 µM | 5.61 µM | 5.93 µM | 9.72 µM | 8.48 µM | > 10 µM | > 10 µM | > 10 µM | > 10 µM | > 10 µM | 6.22 µM | 5.09 µM | > 10 µM | > 10 µM | > 10 µM | > 10 µM | 9.4 µM | > 10 µM | –
9 | COc1cc2c(c(OC)c1OC)-c1ccc(OC)c(=O)cc1C(NC(=O)CN(OC)C1OCC(O)C(O)C1O)CC2 [Col22, L-riboside] | 1.16 µM | 2 µM | 4.16 µM | 4.86 µM | 2.38 µM | > 10 µM | 4.84 µM | 4.84 µM | 2.44 µM | 3.95 µM | 4.27 µM | 2.87 µM | 2.23 µM | 3.56 µM | > 10 µM | > 10 µM | 4.22 µM | 9.44 µM | –
10 | COc1cc2c(c(OC)c1OC)-c1ccc(OC)c(=O)cc1[C@@H](NC(=O)CN(OC)[C@@H]1O[C@H](CO)[C@H](O)[C@H](O)[C@H]1NC(C)=O)CC2 [Col28, N-acetyl-D-galactosaminoside] | 9.76 µM | > 10 µM | 5.7 µM | 3.56 µM | > 10 µM | > 10 µM | 5.18 µM | 7.32 µM | – | > 10 µM | 4.87 µM | 6.67 µM | 9.95 µM | > 10 µM | > 10 µM | 9.57 µM | > 10 µM | > 10 µM | –
11 | COc1cc2c(c(OC)c1OC)-c1ccc(OC)c(=O)cc1C(NC(=O)CN(OC)C1OC(C)C(O)C(O)C1O)CC2 [Col37, L-rhamnoside] | 3.72 µM | 6.7 µM | 4.79 µM | 4.68 µM | 5.81 µM | 4.36 µM | 5.58 µM | > 10 µM | 8.26 µM | 9.57 µM | 3.81 µM | 1.56 µM | 4.56 µM | 4.48 µM | 7.72 µM | 7.76 µM | 7.07 µM | 7.28 µM | –
12 | COc1cc2c(c(OC)c1OC)-c1ccc(OC)c(=O)cc1[C@@H](NC(=O)CN(OC)[C@@H]1O[C@H](C)[C@@H](O)[C@H](O)[C@H]1O)CC2 [Col2, 6-deoxy-D-glucoside] | 7.24 µM | 5.42 µM | 8.43 µM | > 10 µM | > 10 µM | > 7.79 µM | 9.86 µM | > 10 µM | > 10 µM | > 10 µM | 4.86 µM | 4.77 µM | > 10 µM | > 10 µM | > 10 µM | > 10 µM | 8.78 µM | 7.94 µM | –
